Experimental data from ChEMBL document CHEMBL1121662 (1981).

Key:
Assay type in all cases: functional
[1] = organism: Mus musculus; assay: Compound was evaluated for low level mutagenicity
[2] = organism: Mus musculus; assay: Compound was evaluated for mutagenicity after threshold range
[3] = organism: Mus musculus; assay: Compound was evaluated for Carcinogenicity to produce 0.5 tumors per mouse (B.5)
[4] = organism: Mus musculus; assay: Compound was evaluated for Carcinogenicity based on concentration necessary to produce one tumor per mouse (Strain A)

NC(=O)Nc1cc(NC(N)=O)cc(N(CCCl)CCCl)c1
Log 1/B+100 [1]: 0.31 | Log 1/Th+200 [2]: -0.01 | Log 1/B.5 [3]: 5.43 | Log 1/B+1 [4]: 4.26

ClCCN(CCCl)c1ccc(/C=C/c2ccccc2)cc1
Log 1/B+100 [1]: 1.99 | Log 1/Th+200 [2]: 2.04
